Test results taken from patent US20230118497A1, “PYRAZOLE-CONTAINING POLYCYCLIC DERIVATIVE INHIBITOR, PREPARATION METHOD THEREFOR AND APPLICATION THEREOF” (Shanghai Hansoh Biomedical Co., Ltd., priority 2019, published 2023).

Key:
1321N1-hP2X3 receptor = biological target: T1, 1321N1-hP2X3 receptor (Homo sapiens, UniProt P56373); test: Calcium ion mobility (FLIPR) in cells stably expressing 1321N1-hP2X3 receptors; assay type: cell-based; details: calcium signal, agonist at EC80
T1 construct: host or cells: 1321N1
T1 sequence (P56373 1-397): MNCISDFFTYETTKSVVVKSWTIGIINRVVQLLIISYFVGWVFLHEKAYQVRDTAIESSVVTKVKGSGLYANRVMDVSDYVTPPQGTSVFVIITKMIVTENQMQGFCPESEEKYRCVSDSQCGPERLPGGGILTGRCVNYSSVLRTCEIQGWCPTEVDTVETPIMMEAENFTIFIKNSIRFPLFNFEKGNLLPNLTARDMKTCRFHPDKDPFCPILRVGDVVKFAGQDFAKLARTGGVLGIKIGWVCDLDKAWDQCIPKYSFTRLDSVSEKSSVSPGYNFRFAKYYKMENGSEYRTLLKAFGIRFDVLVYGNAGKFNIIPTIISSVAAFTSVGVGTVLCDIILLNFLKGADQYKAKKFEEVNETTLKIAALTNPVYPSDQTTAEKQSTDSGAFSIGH
Experimental: Test Example 1. Determination of the Effect of the Compounds of the Present Invention on Calcium Ion Mobility in Cells Stably Expressing 1321N1-hP2X3 Receptors
To determine the inhibitory activity of the compounds on 1321N1-hP2X3 receptor.
Stably transfected cell line: 1321N1-hP2X3 (supplied by Shanghai ChemPartner Chemical Research Co., Ltd.).
(§1) Assay buffer: 1*HBSS+20 mM HEPES;
Cell culture medium: DMEM+10% FBS+75 µg/mL Hygromycin B+300 µg/mL G418;
(§2) Plating medium: DMEM+10% DPBS;
(§3) 0.5*Dye: 10*Dye stock+1.25 Probenecid+1*assay buffer+0.5 U/mL ATP hydrolytic enzyme;
(§4) 2. The cells were cultured to 70%-90% confluency in the cell culture medium at 37° C., 5% CO2. The medium was discarded, and the cells were added with 2 mL of Versene, and the cells were placed in an incubator at 37° C. for 2 to 5 min. The cells were collected by addition of 10 mL of plating medium and counted. The cells were seeded to the 384-well assay plate by addition of 50 μL solution (a density of 1×10^4 cells/well) to each well, and incubated for 16 to 24 hours (at least overnight).
(§5) 3. The medium was discarded, and 30 μL of 1× dye was added. The cells were incubated at 37° C. in the dark for 60 min.
(§6) 4. The compound powder was dissolved in DMSO to obtain a 20 mM stock solution. 180× compound with required concentration was formulated, and diluted in gradient for concentration points.
(§7) 5. Preparation of compound plate: 500 nL of 180× compound was transferred to the compound plate (source plate for FLIPR) using ECHO. 30 μL of assay buffer was added to each well, and the plate was shaken gently for 20 to 40 minutes.
(§8) 6. Determination: 15 μL of 3× compound was taken from each well and added to the cell plate. The samples were added by FLIPR instrument, and the calcium signals were detected. After 15 minutes, 22.5 μL of 3× agonist (EC80 concentration) was added to each well and the calcium signals were detected.
(§9) The calcium signal values were determined by FLIPR. The ratio of the 340/510 nm wavelength signals to 380/510 nm wavelength signals was used as the calculated results for each sampling time point in the experiment. The calculation of maximum minus minimum was derived from the ratio signal curve.
(§10) The percent inhibition rate and ten-point concentration data were fitted to the parametric nonlinear logistic equation by using GraphPad prism to calculate the IC50 values of the compounds.

1321N1-hP2X2/3 receptor = biological target: T2, 1321N1-hP2X2/3 receptor (Homo sapiens, UniProt P56373+Q9UBL9); test: Calcium ion mobility (FLIPR) in cells stably expressing 1321N1-hP2X2/3 receptors; assay type: cell-based; details: calcium signal, agonist at EC80
T2 construct: host or cells: 1321N1
T2 sequence (P56373 1-397): T1 sequence (P56373 1-397)
T2 sequence (Q9UBL9 1-471): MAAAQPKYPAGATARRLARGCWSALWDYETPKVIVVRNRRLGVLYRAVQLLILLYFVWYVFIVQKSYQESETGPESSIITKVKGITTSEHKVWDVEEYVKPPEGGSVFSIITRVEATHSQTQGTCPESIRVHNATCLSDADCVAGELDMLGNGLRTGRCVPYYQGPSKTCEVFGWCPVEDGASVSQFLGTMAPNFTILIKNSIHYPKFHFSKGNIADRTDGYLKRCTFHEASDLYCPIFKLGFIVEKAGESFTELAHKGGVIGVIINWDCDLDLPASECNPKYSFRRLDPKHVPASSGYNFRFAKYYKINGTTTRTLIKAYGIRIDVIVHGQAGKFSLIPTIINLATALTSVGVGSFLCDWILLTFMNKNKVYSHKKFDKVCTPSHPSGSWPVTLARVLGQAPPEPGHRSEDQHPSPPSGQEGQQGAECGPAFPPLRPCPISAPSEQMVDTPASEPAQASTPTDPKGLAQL
Experimental: Test Example 2. Determination of the Effect of the Compounds of the Present Invention on Calcium Ion Mobility in Cells Stably Expressing 1321N1-hP2X2/3 Receptors
To determine the inhibitory activity of the compounds on 1321N1-hP2X2/3 receptor.
Stably transfected cell line: 1321N1-hP2X2/3 (supplied by Shanghai ChemPartner Chemical Research Co., Ltd.).
as §1
Cell culture medium: DMEM+10% FBS+75 μg/mL Hygromycin B+150 μg/mL G418;
as §2, §3, §4, §5, §6, §7, §8, §9, §10

[1] = Pharmacokinetic assay in Balb/C mice; assay type: in vivo; details: male, mouse, po, p.o. 5 mg/kg, plasma, 0.5% CMC-Na (1% Tween 80)
Experimental: Test Example 3. Pharmacokinetic Assay in Balb/C Mice
Balb/C mice were used as test animals. The pharmacokinetic behavior of the compounds of Examples was studied in mouse body (plasma) by orally administration at a dose of 5 mg/kg.
Male Balb/C mice (6 mice per group), purchased from Shanghai Jiesijie Laboratory Animal Co., LTD, with Certificate No.: SCXK (Shanghai) 2013-0006 N0.311620400001794.
5 g of hydroxyethyl cellulose (HEC, CMC-Na, viscosity: 800-1200 Cps) was weighed and dissolved in 1000 mL of purified water, followed by addition of 10 g of Tween80.
After an overnight fast, male Balb/C mice were administered p.o. with the test compound at a dose of 5 mg/kg and a volume of 10 mL/kg.
0.04 mL of blood was taken from the orbit of the mouse before administration and at 0, 0.5, 1, 2, 4, 6, 8 and 24 hours after administration. The samples were stored in EDTA-K2 tubes, and centrifuged for 6 minutes at 4° C., 6000 rpm to separate the plasma. The plasma samples were stored at −80° C.
1) 160 μL of acetonitrile was added to 20 μL of the plasma sample for precipitation, and then the mixture was centrifuged at 3500×g for 5 to 20 minutes. 2) After the above process, 100 μL of the supernatant was taken to analyze the concentration of the test compound by LC/MS/MS.
2.7 Liquid Chromatography Analysis • Liquid chromatography condition: Shimadzu LC-20AD pump • Mass spectrometry condition: AB Sciex API 4000 mass spectrometer • Chromatographic column: phenomenex Gemiu 5 um C18 50×4.6 mm • Mobile phase: Eluent A was 0.1% formic acid in water, and Eluent B was acetonitrile • Flow rate: 0.8 mL/min • Elution time: 0-4.0 minutes the eluent is as follows:
The main parameters of pharmacokinetics were calculated by WinNonlin 8.2.

P2X3/P2X2/3 = details: background; cited from earlier work
[2] = clinical stage; cited from earlier work

IC50 (1321N1-hP2X3 receptor) [nM]	IC50 (1321N1-hP2X2/3 receptor) [nM]	Compound	other results
385	–	O=C(Cn1c(=O)c2ccc(C(F)(F)F)nc2n2nc(C3CCCCC3)cc12)Nc1ccc(F)cn1 [Example 62, 2-(2-Cyclohexyl-5-oxo-8-(trifluoromethyl)pyrazolo[1,5-a]pyrido[3,2-e]pyrimidin-4(5H)-yl)-N-(5-fluoropyridin-2-yl)acetamide]	–
238	–	Cc1cnccc1-c1cc2n(CC(=O)Nc3ccc(F)cn3)c(=O)c3ccc(C(F)(F)F)nc3n2n1 [Example 63, N-(5-Fluoropyridin-2-yl)-2-(2-(3-methylpyridin-4-yl)-5-oxo-8-(trifluoromethyl)pyrazolo[1,5-a]pyrido[3,2-e]pyrimidin-4(5H)-yl)acetamide]	–
149	–	Cc1ncccc1-c1cc2n(CC(=O)Nc3ccc(F)cn3)c(=O)c3ccc(C(F)(F)F)nc3n2n1 [Example 64, N-(5-Fluoropyridin-2-yl)-2-(2-(2-methylpyridin-3-yl)-5-oxo-8-(trifluoromethyl)pyrazolo[1,5-a]pyrido[3,2-e]pyrimidin-4(5H)-yl)acetamide]	–
130	–	O=C(Cn1c(=O)c2ccc(C(F)(F)F)nc2n2nc(C(F)(F)F)cc12)Nc1ccc(F)cn1 [Example 66, N-(5-Fluoropyridin-2-yl)-2-(5-oxo-2,8-bis(trifluoromethyl)pyrazolo[1,5-a]pyrido[3,2-e]pyrimidin-4(5H)-yl)acetamide]	–
203	–	O=C(Cn1c(=O)c2ccc(C(F)(F)F)nc2n2nc(C(=O)N3CCC3)cc12)Nc1ccc(F)cn1 [Example 74, 2-(2-(Azetidine-1-carbonyl)-5-oxo-8-(trifluoromethyl)pyrazolo[1,5-a]pyrido[3,2-e]pyrimidin-4(5H)-yl)-N-(5-fluoropyridin-2-yl)acetamide]	–
34.7	–	O=C(Cn1c(=O)c2ccc(C(F)(F)F)nc2n2nc(Cl)cc12)Nc1ccc(F)cn1 [Example 79, 2-(2-Chloro-5-oxo-8-(trifluoromethyl)pyrazolo[1,5-a]pyrido[3,2-e]pyrimidin-4(5H)-yl)-N-(5-fluoropyridin-2-yl)acetamide]	–
137	> 30000	O=C(Cn1c(=O)c2ccc(C(F)(F)F)nc2n2nccc12)Nc1ccc(Cl)cn1 [Example 83, N-(5-Chloropyridin-2-yl)-2-(5-oxo-8-(trifluoromethyl)pyrazolo[1,5-a]pyrido[3,2-e]pyrimidin-4(5H)-yl)acetamide]	–

The next lines start with the compound.

Compound	IC50 (1321N1-hP2X3 receptor) [nM]	IC50 (1321N1-hP2X2/3 receptor) [nM]	other results
CC(C)(C)c1cc2n(CC(=O)Nc3ccc(F)cn3)c(=O)c3cccnc3n2n1 [Example 1, 2-(2-(Tert-butyl)-5-oxopyrazolo[1,5-a]pyrido[3,2-e]pyrimidin-4(5H)-yl)-N-(5-fluoropyridin-2-yl)acetamide]	16.2	64400	–
Cc1cc(-c2cc3n(CC(=O)Nc4ccc(F)cn4)c(=O)c4cccnc4n3n2)c(C)cn1 [Example 21]	305	–	–
CC(C)(C)c1cc2n(CC(=O)Nc3ccc(F)cn3)c(=O)c3ccc(C(F)(F)F)nc3n2n1 [Example 30, 2-(2-(Tert-butyl)-5-oxo-8-(trifluoromethyl)pyrazolo[1,5-a]pyrido[3,2-e]pyrimidin-4(5H)-yl)-N-(5-fluoropyridin-2-yl)acetamide]	88.2	14500	AUC(0-t) ([1]; read-out: Area under curve AUC0-t): 10900 ng·h/mL; MRT inf ([1]; read-out: Average residence time MRT0-∞): 2.16 h; half-life ([1]; read-out: Half life t1/2 (converted)): 1.36 h; Tmax ([1]; read-out: Peak time tmax): 0.5 h; Cmax ([1]; read-out: Plasma concentration Cmax): 3550 ng/mL
O=C(Cn1c(=O)c2ccc(C(F)(F)F)nc2n2nc(C3CC3)cc12)Nc1ccc(F)cn1 [Example 35, 2-(2-Cyclopropyl-5-oxo-8-(trifluoromethyl)pyrazolo[1,5-a]pyrido[3,2-e]pyrimidin-4(5H)-yl)-N-(5-fluoropyridin-2-yl)acetamide]	77.7	> 30000	–
CC(C)c1cc2n(CC(=O)Nc3ccc(F)cn3)c(=O)c3ccc(C(F)(F)F)nc3n2n1 [Example 36, N-(5-Fluoropyridin-2-yl)-2-(2-isopropyl-5-oxo-8-(trifluoromethyl)pyrazolo[1,5-a]pyrido[3,2-e]pyrimidin-4(5H)-yl)acetamide]	185	–	–
O=C(Cn1c(=O)c2ccc(C(F)(F)F)nc2n2nc(C3CCCC3)cc12)Nc1ccc(F)cn1 [Example 37, 2-(2-Cyclopentyl-5-oxo-8-(trifluoromethyl)pyrazolo[1,5-a]pyrido[3,2-e]pyrimidin-4(5H)-yl)-N-(5-fluoropyridin-2-yl)acetamide]	337	–	–
Cc1cc(-c2cc3n(CC(=O)Nc4ccc(F)cn4)c(=O)c4ccc(C(F)(F)F)nc4n3n2)c(C)cn1 [Example 40]	292	16700	–
CC1(c2cc3n(CC(=O)Nc4ccc(F)cn4)c(=O)c4ccc(C(F)(F)F)nc4n3n2)CC1 [Example 59, N-(5-Fluoropyridin-2-yl)-2-(2-(1-methylcyclopropyl)-5-oxo-8-(trifluoromethyl)pyrazolo[1,5-a]pyrido[3,2-e]pyrimidin-4(5H)-yl)acetamide]	259	32200	–
COc1cc(C(C)C)c(Oc2cnc(N)nc2N)cc1S(N)(=O)=O [MK-7264]	–	–	selectivity to P2X3/P2X2/3 (P2X3/P2X2/3): low selectivity; side effects [2]: loss of taste
